Consider ten molecules from US20240208937A1, “Compounds and Their Use for Treatment of Hemoglobinopathies” (Bristol-Myers Squibb Company, priority 2022, published 2024).

Common to all, as to format: cell-based
In assay [1] the target is WIZ (Widely interspaced zinc finger) (Homo sapiens (Human), UniProt O95785+Q96SW2). Description: HUDEP-2 WIZ HiBiT degradation assay. To be noted: HUDEP-2 WIZ HiBiT cells, 24 hours treatment, luminescence; for DC50: read-out: WIZ EC50. As for the experimental part: (§1) The HiBiT degradation assay for WIZ and ZBTB7A in HUDEP-2 cells was performed as described below. HUDEP-2 cells engineered to express a HiBiT tag in either the WIZ (Widely interspaced zinc finger) or ZBTB7A (Zinc Finger And BTB Domain Containing 7A) proteins were maintained in low attachment flasks in StemSpan SFEM II media supplemented with Penicillin-Streptomycin (50 U/mL), rhSCF (50 ng/mL), rhEPO (3 IU/mL), dexamethasone (0.4 μg/mL) and doxycycline (1 μg/mL). Prior to start of the assay, cell count and viability were measured by trypan blue exclusion using the Vi-cell XR cell viability analyzer. For the HUDEP-2 WIZ HiBiT assay, cells were transferred to a 50 mL conical and centrifuged at 500 g for five minutes. Cells were resuspended in fresh StemSpan SFEM II media supplemented with Penicillin-Streptomycin (50 U/mL), rhSCF (50 ng/mL), rhEPO (3 IU/mL), dexamethasone (0.4 μg/mL) and doxycycline (1 μg/mL) at a density of 1.0×10^6 cells/ml. Forty microliters of cell suspension was dispensed into 384-well Low Flange White Flat Bottom Polystyrene TC-treated Microplates containing pre-dispensed compounds, using a VIAFLO 384 liquid hander, and placed in a 37° C. incubator with 5% CO2. […] After 24 hours of treatment, 40 μL Nano-Glo HiBiT Lytic Detection System reagent was dispensed into each well using a VIAFLO 384 liquid hander. Plates were incubated for 25 minutes at room temperature and the luminescence was read as relative luminescent units using the EnVision plate reader. EC50 and Y-min values were calculated using curves calculated from dotmatics software after the normalization to the DMSO control of 10 different concentrations: 10, 3.33, 1.11, 0.37, 0.12, 0.04 0.0137, 0.0046, 0.0015 and 0.0005 μM respectively.
Chain of WIZ (Widely interspaced zinc finger) (O95785 whole entry, the tested form may be a part): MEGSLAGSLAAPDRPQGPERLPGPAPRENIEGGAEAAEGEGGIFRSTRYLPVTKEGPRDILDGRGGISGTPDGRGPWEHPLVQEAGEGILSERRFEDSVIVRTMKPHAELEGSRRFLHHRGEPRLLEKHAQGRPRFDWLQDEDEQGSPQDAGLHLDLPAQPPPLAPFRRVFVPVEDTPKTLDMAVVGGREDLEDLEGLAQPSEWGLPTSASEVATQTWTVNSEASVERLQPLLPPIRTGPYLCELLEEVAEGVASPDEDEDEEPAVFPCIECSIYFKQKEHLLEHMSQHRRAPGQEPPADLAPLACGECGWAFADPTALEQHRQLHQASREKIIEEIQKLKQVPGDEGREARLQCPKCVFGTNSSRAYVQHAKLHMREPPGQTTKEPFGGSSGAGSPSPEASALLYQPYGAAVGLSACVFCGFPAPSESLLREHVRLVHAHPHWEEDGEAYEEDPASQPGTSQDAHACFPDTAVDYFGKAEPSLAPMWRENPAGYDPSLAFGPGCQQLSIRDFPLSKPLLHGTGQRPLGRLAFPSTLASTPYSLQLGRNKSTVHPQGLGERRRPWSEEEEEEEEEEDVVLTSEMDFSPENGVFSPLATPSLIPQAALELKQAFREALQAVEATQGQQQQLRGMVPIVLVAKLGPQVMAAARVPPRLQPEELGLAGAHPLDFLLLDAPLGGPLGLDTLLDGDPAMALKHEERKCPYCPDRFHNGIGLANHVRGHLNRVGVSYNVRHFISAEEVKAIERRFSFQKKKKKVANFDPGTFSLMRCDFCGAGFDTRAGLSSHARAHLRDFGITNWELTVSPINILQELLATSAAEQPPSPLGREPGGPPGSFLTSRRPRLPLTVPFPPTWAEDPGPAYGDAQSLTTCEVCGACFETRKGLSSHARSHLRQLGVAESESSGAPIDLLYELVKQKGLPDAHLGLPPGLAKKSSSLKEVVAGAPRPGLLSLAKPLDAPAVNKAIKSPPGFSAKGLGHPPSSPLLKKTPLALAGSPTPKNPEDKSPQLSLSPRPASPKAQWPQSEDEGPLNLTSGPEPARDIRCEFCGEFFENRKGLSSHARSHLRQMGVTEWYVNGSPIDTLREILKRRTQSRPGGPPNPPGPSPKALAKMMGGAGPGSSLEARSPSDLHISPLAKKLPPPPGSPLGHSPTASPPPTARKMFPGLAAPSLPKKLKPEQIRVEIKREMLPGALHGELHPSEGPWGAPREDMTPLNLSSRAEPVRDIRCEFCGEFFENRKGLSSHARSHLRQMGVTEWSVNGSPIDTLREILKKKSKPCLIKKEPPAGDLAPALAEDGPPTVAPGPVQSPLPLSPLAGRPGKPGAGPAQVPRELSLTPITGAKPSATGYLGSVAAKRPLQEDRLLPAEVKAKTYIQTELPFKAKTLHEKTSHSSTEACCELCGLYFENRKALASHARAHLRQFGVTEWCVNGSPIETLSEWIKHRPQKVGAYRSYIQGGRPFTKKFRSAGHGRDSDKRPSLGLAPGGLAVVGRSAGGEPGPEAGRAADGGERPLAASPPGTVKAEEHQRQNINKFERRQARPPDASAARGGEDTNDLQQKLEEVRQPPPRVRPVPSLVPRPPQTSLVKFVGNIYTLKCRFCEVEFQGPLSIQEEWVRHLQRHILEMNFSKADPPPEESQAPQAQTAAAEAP
Chain of WIZ (Widely interspaced zinc finger) (Q96SW2 whole entry, the tested form may be a part): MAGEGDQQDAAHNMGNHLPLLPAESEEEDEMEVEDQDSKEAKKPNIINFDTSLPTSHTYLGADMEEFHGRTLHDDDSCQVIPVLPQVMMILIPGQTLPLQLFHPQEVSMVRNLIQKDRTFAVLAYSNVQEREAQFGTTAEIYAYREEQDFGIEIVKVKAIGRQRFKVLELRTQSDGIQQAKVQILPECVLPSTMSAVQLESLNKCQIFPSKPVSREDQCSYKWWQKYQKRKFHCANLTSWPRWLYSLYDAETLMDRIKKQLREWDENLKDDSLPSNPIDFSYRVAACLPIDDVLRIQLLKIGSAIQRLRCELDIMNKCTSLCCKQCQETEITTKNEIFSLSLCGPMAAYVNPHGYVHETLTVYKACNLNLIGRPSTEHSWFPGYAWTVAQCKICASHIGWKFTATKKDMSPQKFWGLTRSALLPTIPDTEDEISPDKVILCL
Chain of WIZ (Widely interspaced zinc finger) (Q16531 whole entry partner, the tested form may be a part): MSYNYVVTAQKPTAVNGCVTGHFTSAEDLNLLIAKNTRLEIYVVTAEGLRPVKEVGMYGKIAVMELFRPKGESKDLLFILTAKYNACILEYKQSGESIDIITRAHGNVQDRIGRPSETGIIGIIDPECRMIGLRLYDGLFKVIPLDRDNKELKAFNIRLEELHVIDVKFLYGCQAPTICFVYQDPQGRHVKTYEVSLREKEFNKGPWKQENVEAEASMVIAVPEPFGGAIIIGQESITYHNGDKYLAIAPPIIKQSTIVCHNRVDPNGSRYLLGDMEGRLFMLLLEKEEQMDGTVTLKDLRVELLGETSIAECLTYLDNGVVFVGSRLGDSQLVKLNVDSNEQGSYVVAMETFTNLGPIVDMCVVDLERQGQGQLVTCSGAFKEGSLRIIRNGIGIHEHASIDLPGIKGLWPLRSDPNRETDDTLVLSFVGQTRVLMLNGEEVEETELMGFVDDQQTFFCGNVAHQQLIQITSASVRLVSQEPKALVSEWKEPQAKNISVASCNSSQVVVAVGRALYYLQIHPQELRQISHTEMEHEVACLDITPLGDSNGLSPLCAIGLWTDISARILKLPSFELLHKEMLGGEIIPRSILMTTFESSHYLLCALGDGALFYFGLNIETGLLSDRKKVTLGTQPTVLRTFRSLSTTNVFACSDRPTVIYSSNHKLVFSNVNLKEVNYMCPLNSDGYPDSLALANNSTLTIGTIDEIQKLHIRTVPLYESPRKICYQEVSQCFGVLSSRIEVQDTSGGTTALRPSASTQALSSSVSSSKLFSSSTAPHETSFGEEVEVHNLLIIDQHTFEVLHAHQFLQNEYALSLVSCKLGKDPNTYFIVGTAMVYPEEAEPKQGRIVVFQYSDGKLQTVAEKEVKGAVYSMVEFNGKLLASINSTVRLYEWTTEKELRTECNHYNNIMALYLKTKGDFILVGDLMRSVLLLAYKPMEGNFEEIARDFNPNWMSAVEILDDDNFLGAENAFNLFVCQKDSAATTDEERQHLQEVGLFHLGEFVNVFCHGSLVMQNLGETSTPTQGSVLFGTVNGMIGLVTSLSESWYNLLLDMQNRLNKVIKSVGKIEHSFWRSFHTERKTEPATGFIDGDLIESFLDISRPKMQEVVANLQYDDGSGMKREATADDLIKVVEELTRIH

The target of assay [2] is ZBTB7A (Zinc Finger And BTB Domain Containing 7A) (Homo sapiens (Human), UniProt O95365+Q96SW2). Description: HUDEP-2 ZBTB7A HiBiT degradation assay. To be noted: HUDEP-2 ZBTB7A HiBiT cells, 24 hours treatment, luminescence; for DC50: read-out: ZBTB7A EC50. As for the experimental part:
as §1
For the HUDEP-2 ZBTB7A HiBiT assay, cell count and viability were measured by trypan blue exclusion using the Vi-cell XR cell viability analyzer and the cells were transferred to a 50 mL conical and centrifuged at 500 g for five minutes. Cells were resuspended in fresh IMDM media supplemented with L-Glutamine (1×), Penicillin-Streptomycin (50 U/mL), holo-transferrin (330 μg/mL), heparin (2 IU/mL), r-human Insulin (10 μg/mL), rhEPO (3 IU/mL), rhSCF (100 ng/mL)+Dox (1 μg/mL) and 5% human plasma in low attachment flasks, which were placed in a 37° C. incubator with 5% CO2. After 48 hours, cell count and viability were measured by trypan blue exclusion using the Vi-cell XR cell viability analyzer. The HUDEP-2 ZBTB7A cells were transferred to a 50 mL conical, centrifuged at 500 g for five minutes and resuspended at a density of 1.0×10^6 cells/ml in IMDM media supplemented with L-Glutamine (1×), Penicillin-Streptomycin (50 U/mL), holo-transferrin (330 μg/mL), heparin (2 IU/mL), r-human Insulin (10 μg/mL), rhEPO (3 IU/mL), rhSCF (100 ng/mL)+Dox (1 μg/mL) and 5% human plasma. Forty microliters of cell suspension was dispensed into 384-well Low Flange White Flat Bottom Polystyrene TC-treated Microplates containing pre-dispensed compounds, using a VIAFLO 384 liquid hander, and placed in a 37° C. incubator with 5% CO2. […] After 24 hours of treatment, 40 μL Nano-Glo HiBiT Lytic Detection System reagent was dispensed into each well using a VIAFLO 384 liquid hander. Plates were incubated for 25 minutes at room temperature and the luminescence was read as relative luminescent units using the EnVision plate reader. EC50 and Y-min values were calculated using curves calculated from dotmatics software after the normalization to the DMSO control of 10 different concentrations: 10, 3.33, 1.11, 0.37, 0.12, 0.04 0.0137, 0.0046, 0.0015 and 0.0005 μM respectively.

Assay [3] has as its system fetal hemoglobin (HbF) in GCSF-mobilized human CD34+ cells. The assay can be described thus: HbF Induction Assay. To be noted: 168 h; compound 1 μM, 7 days, erythroid-differentiated human CD34+ cells, flow cytometry; DMSO baseline 15% HbF positive cells. As for the experimental part:
The expansion, differentiation, and maturation of GCSF-mobilized human CD34^+ (STEMCELL Technologies Inc.) cells towards erythroid lineage cells were performed using a two-phase liquid culture model (Moutouh-de Parseval L A, el al. Pomalidomide and lenalidomide regulate erythropoiesis and fetal hemoglobin production in human CD34+ cells. J Clin Invest. 2008 January; 118(1):248-58). In the first phase, GCSF-mobilized human CD34^+ cells were cultured using StemSpan™-XF (STEMCELL Technologies Inc.) media supplemented with 1×BIT 9500, Penicillin-Streptomycin (50 U/mL), 100 ng/mL recombinant human (rh) SCF, 100 ng/mL rh Flt3-L, 20 ng/mL rh IL-3 and 10 ng/mL rh EPO and the growth of cells maintained in exponential phase for 7 days at 37° C. with 5% CO2 to support expansion and progenitor differentiation prior the second phase and treatment with compounds. In the second phase, culture media was changed to StemSpan™-XF media supplemented with 1×BIT 9500, Penicillin-Streptomycin (50 U/mL), 50 ng/mL rh SCF and 40 ng/mL rh EPO to promote further differentiation and maturation of the erythrocytes and to initiate treatment with compounds. Compounds were dispensed in duplicate at a final concentration of 1 μM in a final DMSO amount of 0.1%. Fresh compound was reapplied, and cell density was kept constant every 2 days. After 7 days, the cells were assessed for viability and fetal hemoglobin expression using flow cytometry. For viability analysis, eBioscience™ Fixable Viability Dye eFluor™ 780 (1:1000, eBioscience; Cat #65-0865-14) was added to the cells and kept in the dark for 10 minutes. For analysis of fetal hemoglobin (HbF), cells were fixed and permeabilized using Fixation Buffer (BioLegend; Cat #420801 and Intracellular staining permeabilization buffer (BioLegend, Cat #420201) following manufacturer's instructions. During permeabilization step, cells were stained with PE-labelled Mouse Anti-Human Fetal Hemoglobin (1:10, clone 2D12; BD Biosciences, Cat #BDB560041) incubated at room temperature for 20 minutes and protected from light. PE-labelled Mouse anti-IgG k, (1:10 clone MOPC-21; BD Biosciences, Cat# BDB551436) was used as an isotype control.
Viability, cell count, and fetal hemoglobin (HbF) levels were measured using an Attune NXT flow cytometer (Thermofisher) and the data analyzed using the FCS express software (De Novo Software). In Table 1 below, the effects of compounds of formula (I), formula (I′), formula (II), formula (II′), and formula (III) on % viable cells, viable cell count, on the % HbF positive cells and the median fluorescent intensity (MFI) of the HbF positive cell population compared to the DMSO controls can be viewed. All gates were set using the isotype negative control. The baseline % HbF positive cells for DMSO-treated control cells was 15%. Compounds of formula (I), formula (I′), formula (II), formula (II′), and formula (III) having HbF induction between 66% and 100% are level A. Compounds of formula (I), formula (I′), formula (II), formula (II′), and formula (III) having HbF induction between 33% and 66% are level B. Compounds of formula (I), formula (I′), formula (II), formula (II′), and formula (III) having HbF induction % less than 33% are level C. For certain compounds of formula (I), formula (I′), formula (II), formula (II′), and formula (III) % HbF induction values 0-33% (activity level C), between 33% and 66% (activity level B), and between 67% and 100% (activity level A) are shown in Table 2 below.

Chain of ZBTB7A (Zinc Finger And BTB Domain Containing 7A) (O95365 whole entry, the tested form may be a part): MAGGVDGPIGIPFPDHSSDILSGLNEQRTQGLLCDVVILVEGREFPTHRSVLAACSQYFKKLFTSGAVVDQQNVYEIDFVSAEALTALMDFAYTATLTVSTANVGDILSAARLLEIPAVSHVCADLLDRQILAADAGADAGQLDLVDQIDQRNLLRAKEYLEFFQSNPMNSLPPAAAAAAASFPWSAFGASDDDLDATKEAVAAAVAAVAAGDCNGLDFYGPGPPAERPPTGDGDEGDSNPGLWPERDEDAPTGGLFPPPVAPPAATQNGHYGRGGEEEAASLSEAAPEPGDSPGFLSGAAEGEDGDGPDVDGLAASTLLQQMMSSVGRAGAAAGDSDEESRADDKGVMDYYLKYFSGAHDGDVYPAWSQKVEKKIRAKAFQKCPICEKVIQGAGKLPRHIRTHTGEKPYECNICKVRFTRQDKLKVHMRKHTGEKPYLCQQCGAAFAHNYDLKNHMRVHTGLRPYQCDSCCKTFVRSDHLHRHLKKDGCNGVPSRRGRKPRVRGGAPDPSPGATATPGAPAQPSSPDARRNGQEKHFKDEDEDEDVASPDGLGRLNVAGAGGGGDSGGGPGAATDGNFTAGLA
Chain of ZBTB7A (Zinc Finger And BTB Domain Containing 7A) (Q96SW2 whole entry, the tested form may be a part): as the sequence (Q96SW2 whole entry, the tested form may be a part) above
Chain of ZBTB7A (Zinc Finger And BTB Domain Containing 7A) (Q16531 whole entry partner, the tested form may be a part): as the sequence (Q16531 whole entry partner, the tested form may be a part) above

Regarding `O=C1CCC(N2C(=O)c3cccc(Nc4cc5cnn(C6CCOCC6)c5cc4-c4ccnc(C(F)F)c4)c3C2=O)C(=O)N1` (stereo not drawn) [Compound 11, 4-((6-(2-(difluoromethyl)pyridin-4-yl)-1-(tetrahydro-2H-pyran-4-yl)-1H-indazol-5-yl)amino)-2-(2,6-dioxopiperidin-3-yl)isoindoline-1,3-dione], the DC50 in assay [1] was greater than 100 nM. For the same molecule, in assay [2], the EC50 is greater than 100 nM. The same molecule yielded an activation at 1 µM in assay [3] of 66 to 100%.
As for `Cc1cc(-c2cc3nc(C)n(C)c3cc2Nc2cccc3c2C(=O)N(C2CCC(=O)NC2=O)C3=O)ccn1` (stereo not drawn) [Compound 1, 4-((1,2-dimethyl-5-(2-methylpyridin-4-yl)-1H-benzo[d]imidazol-6-yl)amino)-2-(2,6-dioxopiperidin-3-yl)isoindoline-1,3-dione], the DC50 in assay [1] is 10 to 100 nM; in assay [2] it was less than 30 nM. In addition, in assay [3], the activation at 1 µM was 66 to 100%.
In the case of `Cc1cc(-c2cc3c(cnn3C)cc2Nc2cccc3c2C(=O)N([C@H]2CCC(=O)NC2=O)C3=O)ccn1` [Compound 42, (S)-2-(2,6-dioxopiperidin-3-yl)-4-((1-methyl-6-(2-methylpyridin-4-yl)-1H-indazol-5-yl)amino)isoindoline-1,3-dione], the values for the DC50 in assay [1] and in assay [2] were greater than 100 nM and 30 to 100 nM, respectively. Further, in assay [3], the activation at 1 µM lay within 33 to 66%.
The matching figures for `O=C1CCC(N2C(=O)c3cccc(Nc4c(Oc5ccccc5Cl)ccc5c4cnn5C4CCOCC4)c3C2=O)C(=O)N1` (stereo not drawn) [Compound 13, 4-((5-(2-chlorophenoxy)-1-(tetrahydro-2H-pyran-4-yl)-1H-indazol-4-yl)amino)-2-(2,6-dioxopiperidin-3-yl)isoindoline-1,3-dione]: 10 to 100 nM, 30 to 100 nM and 66 to 100%.
Take `Cc1cc(-c2cc3c(cc2Nc2cccc4c2C(=O)N([C@H]2CCC(=O)NC2=O)C4=O)n(C)c(=O)n3C)ccn1` [Compound 41, (S)-4-((1,3-dimethyl-6-(2-methylpyridin-4-yl)-2-oxo-2,3-dihydro-1H-benzo[d]imidazol-5-yl)amino)-2-(2,6-dioxopiperidin-3-yl)isoindoline-1,3-dione]: the values for the half-maximal effective concentration (EC50) in assay [1] and in assay [2] were less than 10 nM and less than 30 nM, respectively. In assay [3], this molecule gave an activation at 1 µM of 66 to 100%.
With `Cc1cc(-c2cc3ncn(C4CC4)c3cc2Nc2cccc3c2C(=O)N(C2CCC(=O)NC2=O)C3=O)ccn1` (stereo not drawn) [Compound 2, 4-((1-cyclopropyl-5-(2-methylpyridin-4-yl)-1H-benzo[d]imidazol-6-yl)amino)-2-(2,6-dioxopiperidin-3-yl)isoindoline-1,3-dione], the values for the DC50 in assay [1] and in assay [2] were less than 10 nM and less than 30 nM, respectively. This molecule returned an activation at 1 µM in assay [3] of 66 to 100%.
The matching figures for `Cc1cc(-c2cc3cnn(C)c3cc2Nc2cccc3c2C(=O)N(C2CCC(=O)NC2=O)C3=O)ccn1` (stereo not drawn) [Compound 7, 2-(2,6-dioxopiperidin-3-yl)-4-((1-methyl-5-(2-methylpyridin-4-yl)-1H-indazol-6-yl)amino)isoindoline-1,3-dione]: 10 to 100 nM, 30 to 100 nM and 66 to 100%.
For `Cn1ncc2cc(Nc3cccc4c3C(=O)N(C3CCC(=O)NC3=O)C4=O)c(C3CCOCC3)cc21` (stereo not drawn) [Compound 22, 2-(2,6-dioxopiperidin-3-yl)-4-((1-methyl-6-(tetrahydro-2H-pyran-4-yl)-1H-indazol-5-yl)amino)isoindoline-1,3-dione], the DC50 in assay [1] is 10 to 100 nM. Further, in assay [2], the EC50 is greater than 100 nM. The molecule further showed an activation at 1 µM in assay [3] of 33 to 66%.
With `Cc1cc(Oc2ccccc2)c(Nc2cccc3c2C(=O)N(C2CCC(=O)NC2=O)C3=O)cn1` (stereo not drawn) [Compound 21, 2-(2,6-dioxopiperidin-3-yl)-4-((6-methyl-4-phenoxypyridin-3-yl)amino)isoindoline-1,3-dione], in assay [1], the concentration giving a half-maximal response (EC50) was less than 10 nM. Moreover, in assay [2], the DC50 is 30 to 100 nM. This molecule showed an activation at 1 µM in assay [3] of 33 to 66%.
`Cc1cc(-c2cc3c(cnn3[C@@H]3CCOC3)cc2Nc2cccc3c2C(=O)N([C@@H]2CCC(=O)NC2=O)C3=O)ccn1` [Compound 52, 2-((R)-2,6-dioxopiperidin-3-yl)-4-((6-(2-methylpyridin-4-yl)-1-((R)-tetrahydrofuran-3-yl)-1H-indazol-5-yl)amino)isoindoline-1,3-dione]: the results for the EC50 in assay [1] and in assay [2] were less than 10 nM and greater than 100 nM, respectively. The molecule further had an activation at 1 µM in assay [3] of 66 to 100%.
